From US20140171438A1, “Hybrid Compounds And Methods Of Making And Using The Same” (CELLCEUTIX CORPORATION, priority 2012, published 2014)
≈ marks a conversion by molar mass, not a printed value. Where two headings read alike, the source gives them in different places. Each block holds one molecule with its values, some of them ahead of it.

Assays:
Format in all cases: cell-based
[1] = Cytotoxicity, colorimetric tetrazolium assay; conditions: one hour with compound in serum-free media
Method: Cytotoxicity of the compounds was evaluated in a colorimetric assay using a transformed human liver cell line (HepG2, HB-8065) and an embryonic mouse cell line (NIH/3T3 cells, CRL-1658). This assay measures the bioreduction of a novel tetrazolium compound to a soluble formazan product by viable cells. HepG2 cells were seeded in 96 well plates at 2×10^4 cells/well in MEM medium with 10% fetal bovine serum (FBS) for 24 hours prior to use. NIH/3T3 cells were seeded in 96 well plates at 2×10^4 cells/well in DMEM medium with 10% bovine calf serum (BCS) 24 hours prior to use. Cell monolayers were rinsed in serum-free media and incubated for one hour with the compound in serum-free media. After incubation, the media was replaced with serum supplemented media and live cells were measured using the Cell Titer 96 Aqueous […] (Promega, Madison, Wis.). EC50 values were determined using a four parameter logistic equation: Y=Bottom+(Top−Bottom)/(1+10̂((Log EC50−X)*HillSlope)). Actual results from a representative cytotoxicity assay are shown below in Table 2. Data is expressed as EC50 in μg/mL.

[2] = test system: Staphylococcus aureus ATCC 27660; test: Antimicrobial activity, MIC, modified microbroth dilution; conditions: read-out: MIC (expressed as MIC50) S. aureus
Method: (§1) The compounds were screened for antimicrobial activity against a number of ATCC bacterial strains. Minimum Inhibitory Concentrations (MIC) of each of the compounds were determined using standard CLSI procedures modified by Hancock protocol against E. Coli ATCC 25922, Staphylococcus aureus ATCC 27660, Enterococcus faecalis ATCC 29212, Pseudomonas aeruginosa ATCC 10145, and Klebsiella pneumoniae ATCC 13883.
(§2) This procedure is a modification of the standard microbroth dilution assay recommended by the National Committee for Clinical Laboratory Standards (NCCLS) which has been developed for determining in vitro antimicrobial activities of cationic agents (Steinberg et al., Antimicrob. Agents Chemother., 1997, 41, 1738; and Yan et al., Antimicrob. Agents Chemother., 2001, 45, 1558). The modifications were made to minimize loss of the antimicrobial agent due to adsorption onto glass or plastic surfaces and by precipitation at high concentrations.
(§3) Three mL of Mueller-Hinton II Broth (cation-adjusted) was inoculated with 5 μL of frozen bacterial stock and incubated at 37° C. on a shaker platform (at 250 rpm) overnight. Compound stock solutions were prepared in DMSO and serial two-fold dilutions of compound were made in 0.01% acetic acid, 0.2% bovine serum albumin directly in the wells of the polypropylene plate at 10 μL/well. […] All samples were performed in duplicate. The overnight bacteria suspension was diluted to approximately 10^6 cfu/mL and inoculated into a polypropylene (Costar) 96-well round bottom plate (90 μL volumes). One set of control wells included broth-only samples with dilution buffer for testing sterility and providing blank values for the assay readings. Vehicle-control wells containing the bacterial suspension with DMSO (no compound) were also included. Following the overnight incubation (18 hours), cell growth was assessed by observing the presence of “acceptable growth”, defined by NCCLS as a ≧2 mm button or definite turbidity.
(§4) Actual results from a representative MIC assay are shown below in Table 1. Data is expressed as MIC50 in μg/mL. The bacterial isolates were as follows: E. coli (25922); S. aureus (27660); E. faecalis (29212); P. aeruginosa (10145); and K. pneumoniae (13883).

[3] = test system: Enterococcus faecalis ATCC 29212; test: as above; conditions: read-out: MIC (expressed as MIC50) E. faecalis
Method: as §1, §2, §3, §4

[4] = test system: Klebsiella pneumoniae ATCC 13883; test: as above; conditions: read-out: MIC (expressed as MIC50) K. Pnuemnoiae
Method: as §1, §2, §3, §4

E. Coli ATCC 25922 = test: as above; conditions: Escherichia coli, read-out: MIC (expressed as MIC50) E. coli
Method: as §1, §2, §3, §4

[5] = test system: Pseudomonas aeruginosa ATCC 10145; test: as above; conditions: read-out: MIC (expressed as MIC50) P. Aeruginosa
Method: as §1, §2, §3, §4

[6] = mouse, NIH/3T3 cells (CRL-1658)
[7] = ATCC27660, S. aureus (27660), 18 hours incubation
[8] = ATCC29212, E. faecalis (29212), 18 hours incubation
[9] = ATCC13883, K. pneumoniae (13883), 18 hours incubation
[10] = ATCC25922, E. coli (25922), 18 hours incubation
[11] = ATCC10145, P. aeruginosa (10145), 18 hours incubation

SMILES: N=C(N)NCCCCC(=O)Nc1cc(C(F)(F)F)cc(NC(=O)Nc2ccc(Oc3cc([N+](=O)[O-])cc(C(F)(F)F)c3)cc2)c1SCCN [Compound 100, (4-(2-(2-aminoethylthio)-3-(3-(4-(3-(trifluoromethyl)-5-nitrophenoxy)phenyl)ureido)-5-(trifluoromethyl)phenylcarbamoyl)butyl)guanidine]
- EC50 at 1 h ([1]; human, HepG2 cells (HB-8065)): 396 µg/mL (≈ 553 µM)
- EC50 at 1 h [1, 6]: 56.2 µg/mL (≈ 78.4 µM)
- MIC50 [2, 7]: 25 µg/mL (≈ 34.9 µM)
- MIC50 [3, 8]: 50 µg/mL (≈ 69.8 µM)
- MIC50 [4, 9]: 50 µg/mL (≈ 69.8 µM)
- MIC50 (E. Coli ATCC 25922; [10]): 50 µg/mL (≈ 69.8 µM)
- MIC50 [5, 11]: 50 µg/mL (≈ 69.8 µM)

SMILES: N=C(N)NCCCCC(=O)Nc1cc(C(F)(F)F)cc(NC(=O)Nc2ccc(Oc3cc([N+](=O)[O-])cc(C(F)(F)F)c3)cc2)c1O[C@@H]1CCNC1 [Compound 101, [3-[4-[[3-(5-guanidinopentanoylamino)-2-[(3R)-pyrrolidin-3-yl]oxy-5-(trifluoromethyl)phenyl]carbamoylamino]phenoxy]-5-(trifluoromethyl)phenyl]azinic acid]
- EC50 at 1 h ([1]; human, HepG2 cells (HB-8065)): > 1000 µg/mL
- EC50 at 1 h [1, 6]: > 1000 µg/mL
- MIC50 ([2]; ATCC27660, 18 h): 50 µg/mL (≈ 68.8 µM)
- MIC50 ([3]; ATCC29212, 18 h): 100 µg/mL (≈ 138 µM)
- MIC50 ([4]; ATCC13883, 18 h): 100 µg/mL (≈ 138 µM)
- MIC50 (E. Coli ATCC 25922; ATCC25922, 18 h): > 100 µg/mL
- MIC50 ([5]; ATCC10145, 18 h): > 100 µg/mL

SMILES: N=C(N)NCCCCC(=O)Nc1cc(C(F)(F)F)cc(NC(=O)Nc2ccc(Oc3cc(N)cc(C(F)(F)F)c3)cc2)c1SCCN [Compound 102, (4-(2-(2-aminoethylthio)-3-(3-(4-(3-amino-5-(trifluoromethyl)phenoxy)phenyl)ureido)-5-(trifluoromethyl)phenylcarbamoyl)butyl) guanidine]
- EC50 at 1 h ([1]; human, HepG2 cells (HB-8065)): 68 µg/mL (≈ 99 µM)
- EC50 at 1 h [1, 6]: 36.7 µg/mL (≈ 53.4 µM)
- MIC50 [2, 7]: 0.78 µg/mL (≈ 1.14 µM)
- MIC50 [3, 8]: 6.25 µg/mL (≈ 9.1 µM)
- MIC50 [4, 9]: 6.25 µg/mL (≈ 9.1 µM)
- MIC50 (E. Coli ATCC 25922; [10]): 3.13 µg/mL (≈ 4.56 µM)
- MIC50 [5, 11]: 12.5 µg/mL (≈ 18.2 µM)

SMILES: N=C(N)NCCCCC(=O)Nc1cc(C(F)(F)F)cc(NC(=O)Nc2ccc(Oc3cc(N)cc(C(F)(F)F)c3)cc2)c1O[C@@H]1CCNC1 [Compound 103, (4-(2-((R)-pyrrolidin-3-yloxy)-3-(3-(4-(3-amino-5-(trifluoromethyl)phenoxy)phenyl)ureido)-5-(trifluoromethyl)phenylcarbamoyl)butyl)guanidine]
- MIC50 [2, 7]: 0.78 µg/mL (≈ 1.12 µM)
- MIC50 [3, 8]: 12.5 µg/mL (≈ 17.9 µM)
- MIC50 [4, 9]: 12.5 µg/mL (≈ 17.9 µM)
- MIC50 (E. Coli ATCC 25922; [10]): 3.13 µg/mL (≈ 4.49 µM)
- MIC50 [5, 11]: 12.5 µg/mL (≈ 17.9 µM)

SMILES: N=C(N)NCCCCC(=O)Nc1cc(C(F)(F)F)cc(NC(=O)Nc2ccc(Oc3cc(NCCN)cc(C(F)(F)F)c3)cc2)c1O[C@@H]1CCNC1 [Compound 104]
- EC50 at 1 h ([1]; human, HepG2 cells (HB-8065)): 148 µg/mL (≈ 200 µM)
- EC50 at 1 h [1, 6]: 82.7 µg/mL (≈ 112 µM)
- MIC50 [2, 7]: 0.049 µg/mL (≈ 0.0662 µM)
- MIC50 [3, 8]: 3.13 µg/mL (≈ 4.23 µM)
- MIC50 [4, 9]: 3.13 µg/mL (≈ 4.23 µM)
- MIC50 (E. Coli ATCC 25922; [10]): 3.13 µg/mL (≈ 4.23 µM)
- MIC50 [5, 11]: 6.25 µg/mL (≈ 8.45 µM)

Further lines, with some results ahead:

- MIC50 [2, 7]: 0.195 µg/mL (≈ 0.262 µM)
- MIC50 [3, 8]: 0.78 µg/mL (≈ 1.05 µM)
- MIC50 [4, 9]: 1.56 µg/mL (≈ 2.1 µM)
- MIC50 (E. Coli ATCC 25922; [10]): 1.56 µg/mL (≈ 2.1 µM)
- MIC50 [5, 11]: 3.13 µg/mL (≈ 4.21 µM)
SMILES: N=C(N)NCCCCC(=O)Nc1cc(C(F)(F)F)cc(NC(=O)Nc2ccc(Oc3cc(NCCCN)cc(C(F)(F)F)c3)cc2)c1SCCN [Compound 105, (4-(2-(2-aminoethylthio)-3-(3-(4-(3-(3-aminopropylamino)-5-(trifluoromethyl)phenoxy)phenyl)ureido)-5-(trifluoromethyl)phenylcarbamoyl)butyl)guanidine]
- EC50 at 1 h ([1]; human, HepG2 cells (HB-8065)): 40 µg/mL (≈ 53.8 µM)
- EC50 at 1 h [1, 6]: 49.4 µg/mL (≈ 66.4 µM)

- MIC50 [2, 7]: 0.195 µg/mL (≈ 0.267 µM)
- MIC50 [3, 8]: 1.56 µg/mL (≈ 2.14 µM)
- MIC50 [4, 9]: 1.56 µg/mL (≈ 2.14 µM)
- MIC50 (E. Coli ATCC 25922; [10]): 0.78 µg/mL (≈ 1.07 µM)
- MIC50 [5, 11]: 3.13 µg/mL (≈ 4.29 µM)
SMILES: N=C(N)NCCCCC(=O)Nc1cc(C(F)(F)F)cc(NC(=O)Nc2ccc(Oc3cc(NCCN)cc(C(F)(F)F)c3)cc2)c1SCCN [Compound 106, (4-(2-(2-aminoethylthio)-3-(3-(4-(3-(2-aminoethylamino)-5-(trifluoromethyl)phenoxy)phenyl)ureido)-5-(trifluoromethyl)phenylcarbamoyl)butyl) guanidine]
- EC50 at 1 h ([1]; human, HepG2 cells (HB-8065)): 61.8 µg/mL (≈ 84.7 µM)
- EC50 at 1 h [1, 6]: 52.6 µg/mL (≈ 72.1 µM)

- MIC50 [2, 7]: 0.39 µg/mL (≈ 0.535 µM)
- MIC50 [3, 8]: 12.5 µg/mL (≈ 17.2 µM)
- MIC50 [4, 9]: 12.5 µg/mL (≈ 17.2 µM)
- MIC50 (E. Coli ATCC 25922; [10]): 3.13 µg/mL (≈ 4.3 µM)
- MIC50 [5, 11]: 6.25 µg/mL (≈ 8.58 µM)
SMILES: N=C(N)NCCCCC(=O)Nc1cc(C(F)(F)F)cc(NC(=O)Nc2cccc(Oc3cc(NC(=N)N)cc(C(F)(F)F)c3)c2)c1SCCN [Compound 107, N-[2-(2-aminoethylsulfanyl)-3-[[3-[3-guanidino-5-(trifluoromethyl)phenoxy]phenyl]carbamoylamino]-5-(trifluoromethyl)phenyl]-5-guanidino-pentanamide]

- MIC50 [2, 7]: 0.39 µg/mL (≈ 0.528 µM)
- MIC50 [3, 8]: 12.5 µg/mL (≈ 16.9 µM)
- MIC50 [4, 9]: 12.5 µg/mL (≈ 16.9 µM)
- MIC50 (E. Coli ATCC 25922; [10]): 3.13 µg/mL (≈ 4.24 µM)
- MIC50 [5, 11]: 6.25 µg/mL (≈ 8.46 µM)
SMILES: N=C(N)NCCCCC(=O)Nc1cc(C(F)(F)F)cc(NC(=O)Nc2cccc(Oc3cc(NC(=N)N)cc(C(F)(F)F)c3)c2)c1O[C@@H]1CCNC1 [Compound 116, 5-guanidino-N-[3-[[3-[3-guanidino-5-(trifluoromethyl)phenoxy]phenyl]carbamoylamino]-2-[(3R)-pyrrolidin-3-yl]oxy-5-(trifluoromethyl)phenyl]pentanamide]

- MIC50 [2, 7]: 0.39 µg/mL (≈ 0.524 µM)
- MIC50 [3, 8]: 3.13 µg/mL (≈ 4.21 µM)
- MIC50 [4, 9]: 3.13 µg/mL (≈ 4.21 µM)
- MIC50 (E. Coli ATCC 25922; [10]): 1.56 µg/mL (≈ 2.1 µM)
- MIC50 [5, 11]: 6.25 µg/mL (≈ 8.4 µM)
SMILES: N=C(N)NCCCCC(=O)Nc1cc(C(F)(F)F)cc(NC(=O)Nc2cccc(Oc3cc(NCCCN)cc(C(F)(F)F)c3)c2)c1SCCN [Compound 117]

- MIC50 [2, 7]: 0.195 µg/mL (≈ 0.259 µM)
- MIC50 [3, 8]: 3.13 µg/mL (≈ 4.15 µM)
- MIC50 [4, 9]: 3.13 µg/mL (≈ 4.15 µM)
- MIC50 (E. Coli ATCC 25922; [10]): 3.13 µg/mL (≈ 4.15 µM)
- MIC50 [5, 11]: 6.25 µg/mL (≈ 8.29 µM)
SMILES: N=C(N)NCCCCC(=O)Nc1cc(C(F)(F)F)cc(NC(=O)Nc2cccc(Oc3cc(NCCCN)cc(C(F)(F)F)c3)c2)c1O[C@@H]1CCNC1 [Compound 118, N-[3-[[3-[3-(3-aminopropylamino)-5-(trifluoromethyl)phenoxy]phenyl]carbamoylamino]-2-[(3R)-pyrrolidin-3-yl]oxy-5-(trifluoromethyl)phenyl]-5-guanidino-pentanamide]
